According to patent US20230104936A1, “TRPML MODULATORS” (Casma Therapeutics, Inc., priority 2019, published 2023):

System: TFEB
Assay: TFEB nuclear translocation assay, HeLa wt cells
Assay type: cell-based
Settings: Homo sapiens, HeLa, 2 h, 2 hrs compound treatment, Table 1 does not say HeLa wt or TRPML1 KO
Outline: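 TFEB translocation into the nucleus of HeLa wt cells is scored by high-content immunofluorescence after 2 hrs of compound treatment at 37° C, reported as AC50.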

Structure (SMILES) | AC50 [nM]
O=S(=O)(Nc1ccccc1N1CCC(c2ccc(Cl)cc2F)CC1)c1ccc(C(O)C(F)(F)F)cc1 (stereo not shown) [Compound A-157, N-{2-[4-(4-chloro-2-fluorophenyl)piperidin-1-yl]phenyl}-4-(2,2,2-trifluoro-1-hydroxyethyl)benzene-1-sulfonamide] | ≤ 2000
O=S(=O)(Nc1ccccc1N1CCC(c2ccc(Cl)cc2F)CC1)c1ccc(C(F)(F)F)c(F)c1 [Compound A-158, N-{2-[4-(4-chloro-2-fluorophenyl)piperidin-1-yl]phenyl}-3-fluoro-4-(trifluoromethyl)benzene-1-sulfonamide] | ≤ 2000
O=S(=O)(Nc1ccccc1N1CCC(c2ccc(Cl)cc2F)CC1)c1ccc(C(F)(F)F)cc1F [Compound A-159, N-{2-[4-(4-chloro-2-fluorophenyl)piperidin-1-yl]phenyl}-2-fluoro-4-(trifluoromethyl)benzene-1-sulfonamide] | 2010 to 8000
C[S+]([O-])c1ccc(S(=O)(=O)Nc2ccccc2N2CCC(c3ccc(F)cc3F)CC2)cc1 (stereo not shown) [Compound A-160, N-{2-[4-(2,4-difluorophenyl)piperidin-1-yl]phenyl}-4-methanesulfinylbenzene-1-sulfonamide] | 2010 to 8000
CN(C)S(=O)(=O)c1ccc(S(=O)(=O)Nc2ccccc2N2CCC(CO)(c3ccc(F)cc3F)CC2)cc1 [Compound A-161, N4-{2-[4-(2,4-difluorophenyl)-4-(hydroxymethyl)piperidin-1-yl]phenyl}-N1,N1-dimethylbenzene-1,4-disulfonamide] | 2010 to 8000
CN(C)S(=O)(=O)c1ccc(S(=O)(=O)Nc2ccccc2N2CC(O)(c3ccc(Cl)cc3F)C2)cc1 [Compound A-162, N4-{2-[3-(4-chloro-2-fluorophenyl)-3-hydroxyazetidin-1-yl]phenyl}-N1,N1-dimethylbenzene-1,4-disulfonamide] | 2010 to 8000
CN(C)S(=O)(=O)c1ccc(S(=O)(=O)Nc2ccccc2N2CCC(C(N)=O)(c3ccc(F)cc3F)CC2)cc1 [Compound A-163, 4-(2,4-difluorophenyl)-1-{2-[4-(dimethylsulfamoyl)benzenesulfonamido]phenyl}piperidine-4-carboxamide] | ≥ 10000
CP(C)(=O)c1ccc(S(=O)(=O)Nc2ccccc2N2CCN(c3ccc(F)cc3F)CC2)cc1 [Compound A-165, N-{2-[4-(2,4-difluorophenyl)piperazin-1-yl]phenyl}-4-(dimethylphosphoryl)benzene-1-sulfonamide] | 2010 to 8000
CS(=N)(=O)c1ccc(S(=O)(=O)Nc2ccccc2N2CCC(c3c(F)cccc3F)CC2)cc1 (stereo not shown) [Compound A-166, N-{2-[4-(2,6-difluorophenyl)piperidin-1-yl]phenyl}-4-[imino(methyl)oxo-λ^6-sulfanyl]benzene-1-sulfonamide] | 2010 to 8000
COc1ccc(S(=O)(=O)Nc2ccccc2-c2ccc(F)cc2F)cc1 [Compound A-167, N-(2′,4′-difluoro-[1,1′-biphenyl]-2-yl)-4-methoxybenzenesulfonamide] | 2010 to 8000
CN(C)S(=O)(=O)c1ccc(C(Nc2ccccc2N2CCC(c3ccc(Cl)cc3F)CC2)C(F)(F)F)cc1 (stereo not shown) [Compound A-170, 4-[1-({2-[4-(4-chloro-2-fluorophenyl)piperidin-1-yl]phenyl}amino)-2,2,2-trifluoroethyl]-N,N-dimethylbenzene-1-sulfonamide] | ≤ 2000
CN(C)S(=O)(=O)c1ccc(S(=O)(=O)N2CC(c3ccc(Cl)cc3F)Nc3ccccc32)cc1 (stereo not shown) [Compound A-171, 4-{[3-(4-chloro-2-fluorophenyl)-1,2,3,4-tetrahydroquinoxalin-1-yl]sulfonyl}-N,N-dimethylbenzene-1-sulfonamide] | 2010 to 8000
CC(=O)N(C)C1(c2ccc(Cl)cc2F)CCN(c2ccccc2NS(=O)(=O)c2ccc(S(=O)(=O)N(C)C)cc2)CC1 [Compound A-172, N-[4-(4-chloro-2-fluorophenyl)-1-{2-[4-(dimethylsulfamoyl)benzenesulfonamido]phenyl}piperidin-4-yl]-N-methylacetamide] | 2010 to 8000
O=S(=O)(Nc1ccccc1N1CCC(c2ccc(F)cc2F)CC1)c1ccc(S(=O)(=O)C(F)(F)F)cc1 [Compound A-173, N-{2-[4-(2,4-difluorophenyl)piperidin-1-yl]phenyl}-4-trifluoromethanesulfonylbenzene-1-sulfonamide] | ≤ 2000
O=S(=O)(Nc1ccccc1N1CCN(c2ccc(F)cc2F)CC1)c1ccc(S(=O)(=O)C(F)(F)F)cc1 [Compound A-174, N-{2-[4-(2,4-difluorophenyl)piperazin-1-yl]phenyl}-4-trifluoromethanesulfonylbenzene-1-sulfonamide] | 2010 to 8000
CN(C)S(=O)(=O)c1ccc(S(=O)(=O)Nc2ccccc2N2CCC(C#N)(c3ccc(F)cc3F)CC2)cc1 [Compound A-175, N4-{2-[4-cyano-4-(2,4-difluorophenyl)piperidin-1-yl]phenyl}-N1,N1-dimethylbenzene-1,4-disulfonamide] | ≤ 2000
CP(C)(=O)c1ccc(S(=O)(=O)Nc2ccccc2N2CCC(c3ccc(F)cc3F)CC2)cc1 [Compound A-176, N-{2-[4-(2,4-difluorophenyl)piperidin-1-yl]phenyl}-4-(dimethylphosphoryl)benzene-1-sulfonamide] | ≥ 10000

Structure (SMILES) | AC50 [nM]
CP(C)(=O)c1ccc(S(=O)(=O)Nc2ccccc2N2CCC(c3c(F)cccc3F)CC2)cc1 [Compound A-177, N-{2-[4-(2,6-difluorophenyl)piperidin-1-yl]phenyl}-4-(dimethylphosphoryl)benzene-1-sulfonamide] | ≥ 10000
O=S(=O)(Nc1ccccc1N1CCN(c2ncc(Cl)cc2F)CC1)c1ccc(S(=O)(=O)C(F)(F)F)cc1 [Compound A-178, N-{2-[4-(5-chloro-3-fluoropyridin-2-yl)piperazin-1-yl]phenyl}-4-trifluoromethanesulfonylbenzene-1-sulfonamide] | ≤ 2000
CN(C)S(=O)(=O)c1ccc(S(=O)(=O)Nc2ccccc2N2CCN(C34CC(C3)C4)CC2)cc1 [Compound A-179, N4-[2-(4-{bicyclo[1.1.1]pentan-1-yl}piperazin-1-yl)phenyl]-N1,N1-dimethylbenzene-1,4-disulfonamide] | ≤ 2000
COc1ccc(S(=O)(=O)Nc2ccccc2-c2ncc(F)cc2F)cc1 [Compound A-180, N-(2-(3,5-difluoropyridin-2-yl)phenyl)-4-methoxybenzenesulfonamide] | 8010 to 9990
CN(C)S(=O)(=O)c1ccc([S+]([O-])c2ccccc2N2CCC(c3ccc(Cl)cc3F)CC2)cc1 (stereo not shown) [Compound A-181, 4-((2-(4-(4-chloro-2-fluorophenyl)piperidin-1-yl)phenyl)sulfinyl)-N,N-dimethylbenzenesulfonamide] | 2010 to 8000
CN(C)S(=O)(=O)c1ccc(S(=O)(=O)Nc2ccccc2N2CCC(C)(c3ccccc3Cl)CC2)cc1 [Compound A-183, N4-{2-[4-(2-chlorophenyl)-4-methylpiperidin-1-yl]phenyl}-N1,N1-dimethylbenzene-1,4-disulfonamide] | ≤ 2000
CN(C)S(=O)(=O)c1ccc(S(=O)(=O)Nc2ccccc2N2CCC(C)(c3ccc(Cl)cc3)CC2)cc1 [Compound A-184, N4-{2-[4-(4-chlorophenyl)-4-methylpiperidin-1-yl]phenyl}-N1,N1-dimethylbenzene-1,4-disulfonamide] | ≤ 2000
O=S(=O)(Nc1ccccc1N1CCC(c2ccc(F)cc2F)CC1)c1ccc(S(=O)(=O)C(F)F)cc1 [Compound A-185, 4-difluoromethanesulfonyl-N-{2-[4-(2,4-difluorophenyl)piperidin-1-yl]phenyl}benzene-1-sulfonamide] | ≤ 2000
COc1ccc(S(=O)(=O)Nc2ccccc2Oc2ccc(F)cc2F)cc1 [Compound A-186, N-(2-(2,4-difluorophenoxy)phenyl)-4-methoxybenzenesulfonamide] | ≥ 10000
COc1ccc(S(=O)(=O)Nc2ccccc2OCc2ccc(F)cc2F)cc1 [Compound A-187, N-(2-((2,4-difluorobenzyl)oxy)phenyl)-4-methoxybenzenesulfonamide] | ≥ 10000
COc1ccc(S(=O)(=O)Nc2ccccc2N2CC(N(C)c3ccc(F)cc3F)C2)cc1 [Compound A-188, N-(2-{3-[(2,4-difluorophenyl)(methyl)amino]azetidin-1-yl}phenyl)-4-methoxybenzene-1-sulfonamide] | ≥ 10000
COc1ccc(S(=O)(=O)Nc2ccccc2N2CCC(N(C)c3ccc(F)cc3F)CC2)cc1 [Compound A-189, N-(2-{4-[(2,4-difluorophenyl)(methyl)amino]piperidin-1-yl}phenyl)-4-methoxybenzene-1-sulfonamide] | ≤ 2000
CN(C)S(=O)(=O)c1ccc([S+]([O-])Cc2ccccc2N2CCC(c3ccc(Cl)cc3F)CC2)cc1 (stereo not shown) [Compound A-190, 4-((2-(4-(4-chloro-2-fluorophenyl)piperidin-1-yl)benzyl)sulfinyl)-N,N-dimethylbenzenesulfonamide] | ≤ 2000
O=C(c1ccc(S(=O)(=O)Nc2ccccc2N2CCC(c3ccc(Cl)cc3F)CC2)cc1)C(F)(F)F [Compound A-191, N-{2-[4-(4-chloro-2-fluorophenyl)piperidin-1-yl]phenyl}-4-(2,2,2-trifluoroacetyl)benzene-1-sulfonamide] | 2010 to 8000
COc1ccc(S(=O)(=O)Nc2ccncc2N2CCC(c3ncc(F)cc3F)CC2)cc1 [Compound A-192, N-{3-[4-(3,5-difluoropyridin-2-yl)piperidin-1-yl]pyridin-4-yl}-4-methoxybenzene-1-sulfonamide] | ≥ 10000
COc1ccc(S(=O)(=O)Nc2cnccc2N2CCC(c3ncc(F)cc3F)CC2)cc1 [Compound A-193, N-{4-[4-(3,5-difluoropyridin-2-yl)piperidin-1-yl]pyridin-3-yl}-4-methoxybenzene-1-sulfonamide] | ≥ 10000
COc1ccc(S(=O)(=O)Nc2ccccc2N2CCN(Cc3ccc(F)cc3F)CC2)cc1 [Compound A-194, N-(2-{4-[(2,4-difluorophenyl)methyl]piperazin-1-yl}phenyl)-4-methoxybenzene-1-sulfonamide] | ≥ 10000
